Measurements: patent US20160038474A1, “COMPOSITIONS AND METHODS FOR THE MODULATION OF HEMOGLOBIN (S)” (GLOBAL BLOOD THERAPEUTICS, INC., priority 2013, published 2016)

Legend:
Format in all cases: in vivo
[1] = Pharmacokinetics after single dose of GBT440 (FIG. 1), rat
Text: (§1) FIG. 1 graphically illustrates the high oral bioavailability, sustained exposure and dramatic RBC partitioning following single dose of GBT440. Certain relevant pharmacokinetic parameters are tabulated below:
(§2) FIG. 1 in parts A, B, and C graphically illustrates the high in vivo oral bioavailability, sustained exposure and the high RBC partitioning following single dose of GBT440.

[2] = Pharmacokinetics after single dose of GBT440 (FIG. 1), monkey
Text: as §1, §2

[3] = Pharmacokinetics after single dose of GBT440 (FIG. 1), dog
Text: as §1, §2

bioavailability ([1]; in vivo, IV 1.6 mg/kg, PO 7.2 mg/kg, read-out: Oral bioavailability (% F)): 59.8%
blood plasma ratio ([1]; whole blood and plasma): 69
bioavailability ([2]; in vivo, IV 1 mg/kg, PO 4.25 mg/kg, read-out: Oral bioavailability (% F)): 36.1%
blood plasma ratio ([2]; whole blood and plasma): 70.9
bioavailability ([3]; in vivo, IV 1 mg/kg, PO 2.5 mg/kg, read-out: Oral bioavailability (% F)): 36.6%
blood plasma ratio ([3]; whole blood and plasma): 74.4
SMILES: CC(C)n1nccc1-c1ncccc1COc1cccc(O)c1C=O [GBT440]
